Reference: ChEMBL document CHEMBL4385628, “New insights into the binding mode of pyridine-3-carboxamide inhibitors of E. coli DNA gyrase” (Bioorg Med Chem, 2019)
Values after ≈ are worked out from the molar mass of the structure shown. Active and inactive are the calls of the source. The rule behind the calls is not given here.

Tests used:
[1] = Half life in human liver microsomes; assay type: ADME, Microsome
[2] = Half life in mouse liver microsomes; assay type: ADME, Microsome
[3] = Apparent permeability across apical to basolateral side in human Caco2 cells; assay type: ADME, cell-based; conditions: Caco-2
[4] = Protein binding in human plasma; assay type: ADME, cell-free; conditions: read-out: PPB (converted)
[5] = Aqueous solubility of compound; assay type: physicochemical
[6] = biological target: DNA topoisomerase 2-alpha (Homo sapiens) (UniProt P11388); experiment: Inhibition of human topoisomerase-2alpha up to 100 uM
Chain of DNA topoisomerase 2-alpha (Homo sapiens) (P11388 whole entry): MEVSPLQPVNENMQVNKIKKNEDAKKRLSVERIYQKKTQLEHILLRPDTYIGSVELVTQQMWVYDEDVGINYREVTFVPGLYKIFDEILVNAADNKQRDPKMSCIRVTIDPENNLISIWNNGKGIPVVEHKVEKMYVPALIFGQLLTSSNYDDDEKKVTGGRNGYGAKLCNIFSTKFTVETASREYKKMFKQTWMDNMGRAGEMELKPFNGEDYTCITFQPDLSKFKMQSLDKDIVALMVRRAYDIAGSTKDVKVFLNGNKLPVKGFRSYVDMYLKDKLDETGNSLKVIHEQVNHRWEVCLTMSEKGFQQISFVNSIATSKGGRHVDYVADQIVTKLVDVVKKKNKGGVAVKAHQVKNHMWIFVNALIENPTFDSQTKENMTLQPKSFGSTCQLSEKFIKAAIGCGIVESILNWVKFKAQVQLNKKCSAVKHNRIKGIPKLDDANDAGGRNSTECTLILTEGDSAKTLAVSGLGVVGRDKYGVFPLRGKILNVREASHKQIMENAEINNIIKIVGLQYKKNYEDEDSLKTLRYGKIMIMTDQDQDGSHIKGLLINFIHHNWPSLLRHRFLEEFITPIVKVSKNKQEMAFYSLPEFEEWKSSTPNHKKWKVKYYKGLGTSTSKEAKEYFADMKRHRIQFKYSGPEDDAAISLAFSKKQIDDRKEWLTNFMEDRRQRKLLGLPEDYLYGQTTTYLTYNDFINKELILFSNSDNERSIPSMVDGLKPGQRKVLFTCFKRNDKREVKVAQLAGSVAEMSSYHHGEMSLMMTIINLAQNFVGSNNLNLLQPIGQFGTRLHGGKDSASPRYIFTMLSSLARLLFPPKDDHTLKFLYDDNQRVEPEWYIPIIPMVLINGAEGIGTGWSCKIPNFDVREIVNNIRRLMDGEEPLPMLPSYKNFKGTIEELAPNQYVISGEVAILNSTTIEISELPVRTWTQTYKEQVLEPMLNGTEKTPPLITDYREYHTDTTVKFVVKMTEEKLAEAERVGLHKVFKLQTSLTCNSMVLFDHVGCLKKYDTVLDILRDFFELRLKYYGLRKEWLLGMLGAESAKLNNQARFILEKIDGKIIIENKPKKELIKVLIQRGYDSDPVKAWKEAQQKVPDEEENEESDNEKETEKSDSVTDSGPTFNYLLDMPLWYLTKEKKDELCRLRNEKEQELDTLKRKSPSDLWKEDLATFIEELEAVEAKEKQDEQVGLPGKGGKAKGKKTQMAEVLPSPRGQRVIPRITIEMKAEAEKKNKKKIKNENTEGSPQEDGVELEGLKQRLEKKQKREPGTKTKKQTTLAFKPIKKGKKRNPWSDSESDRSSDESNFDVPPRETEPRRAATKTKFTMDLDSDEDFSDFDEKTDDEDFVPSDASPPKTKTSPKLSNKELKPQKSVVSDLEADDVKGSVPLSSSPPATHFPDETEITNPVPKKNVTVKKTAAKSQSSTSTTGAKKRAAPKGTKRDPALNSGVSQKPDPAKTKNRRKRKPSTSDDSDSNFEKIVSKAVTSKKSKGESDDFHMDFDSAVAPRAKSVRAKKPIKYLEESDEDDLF

Staphylococcus aureus = experiment: Antibacterial activity against Staphylococcus aureus ATCC 29213 assessed as reduction in microbial growth by CLSI based broth microdilution method; assay type: functional
Escherichia coli = experiment: Antibacterial activity against Escherichia coli ATCC 25922 assessed as reduction in microbial growth by CLSI based broth microdilution method; assay type: functional
[7] = Efflux ratio of apparent permeability across basolateral to apical over apical to basolateral side in human Caco2 cells; assay type: ADME, cell-based; conditions: Caco-2
DNA gyrase = DNA gyrase (Escherichia coli, UniProt P0AES4+P0AES6); experiment: Inhibition of Escherichia coli DNA gyrase(A2B2 tetramer) preincubated for 5 mins followed by ATP addition and measured once per minute for 20 to 30 minutes by ATPase assay; assay type: protein-complex assay

half-life [1] [min]	half-life [2] [min]	Papp A→B [3] [×10⁻⁶ cm/s]	fraction unbound [4]	solubility [5] [µM]	inhibition [6]	MIC (Staphylococcus aureus) [µg/mL]	MIC (Escherichia coli) [µg/mL]	efflux ratio [7]	IC50 (DNA gyrase) [nM]	SMILES
46	58	< 2.67	0.001	4.26 (≈ 1.72 µg/mL)						CCNC(=O)Nc1cc(Nc2cccc(C)c2)c(C(=O)Nc2cccc(C)c2)cn1
290		4.02	0.498	88.5 (≈ 32.7 µg/mL)	inactive	> 64	> 64	2.78	89	CCNC(=O)Nc1cc(N2CCC(N)C2)c(C(=O)Nc2cccnc2)cn1 (stereo not given)
									200	CCNC(=O)Nc1cc(-n2ccnn2)c(C(=O)Nc2cccnc2)cn1
						64	> 64		120	CCNC(=O)Nc1cc(N2CCCC2)c(C(=O)Nc2cccnc2)cn1
20		11.8	0.028	2.4 (≈ 0.975 µg/mL)	inactive	4	> 64	2.82	19	CCNC(=O)Nc1cc(Nc2ccc(OC)cc2)c(C(=O)Nc2cccnc2)cn1
					inactive	16	> 64		37	CCNC(=O)Nc1cc(-n2cc(Br)cn2)c(C(=O)Nc2cccnc2)cn1
						> 64	> 64		410	CCNC(=O)Nc1cc(Nc2ccccc2O)c(C(=O)Nc2cccnc2)cn1
128	24	1.23	0.095	32.6 (≈ 11.5 µg/mL)	inactive	64	> 64	30.8	86	CCNC(=O)Nc1cc(-n2cccn2)c(C(=O)Nc2cccnc2)cn1
						64	> 64		150	CCNC(=O)Nc1cc(-n2nccn2)c(C(=O)Nc2cccnc2)cn1
						> 64	> 64		82	CCNC(=O)Nc1cc(-n2cncn2)c(C(=O)Nc2cccnc2)cn1
